{"source": "patent US20250213707A1", "about": "“COMPOUND FOR INCREASING EFFICACY OF ONCOLYTIC VIRUSES” (ABLEVIA BIOTECH GMBH, priority 2022, published 2025)", "assay_type_in_all_cases": "binding", "key": {"mAb E10B10": {"test_system": "mAb E10B10", "assay": "Fine epitope mapping of mAb E10B10 with 1068 circular peptides from SRCR-1 to -3 of mouse CD163", "details": "circular peptides of 7, 10 and 13 amino acids from mouse CD163", "from_the_text": "The epitope of this antibody was fine mapped using circular peptide arrays, whereby the peptides were derived from mouse CD163."}, "mAb Mac2-158": {"test_system": "mAb Mac2-158", "assay": "Epitope mapping of mAb Mac2-158 with circular peptides of human CD163 SRCR domain 1", "details": "circular peptides aligned to SRCR domain 1 of human CD163", "from_the_text": "As a result, the following sequences (as well as motifs derived therefrom) are highly suitable epitopes anti-CD163 antibodies and fragments thereof used as SADC biopolymer scaffold: […]"}, "[1]": {"test_system": "IgG from human donors (anti-measles virus antibodies)", "parameters": "key: X: The peptides belonging to the Top 10% hits"}, "[2]": {"test_system": "IgG from human donors (anti-AAV antibodies)", "assay": "Screen for anti-AAV antibodies in human sera, 2452 linear 15-amino-acid AAV peptides on microarrays (Table 1)", "parameters": "key to group I: X: the deduplicated aggregate of the respective top 10 peptide hits for each donor was compiled and designated as group I; key to group II: X: the deduplicated aggregate of the respective top 25 peptide hits for each donor was compiled and designated as group II; key to group III: X: the deduplicated aggregate of the respective top 50 peptide hits for each donor was compiled and designated as group III", "details": "human donor IgG binding to linear 15-amino-acid AAV peptides on microarray, fluorescence; for group I: membership in deduplicated aggregate of top 10 peptide hits for each donor; for group II: membership in deduplicated aggregate of top 25 peptide hits for each donor; for group III: membership in deduplicated aggregate of top 50 peptide hits for each donor", "in_short": "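Peptide hits were grouped I to IV by pooling each donor's top 10, 25, 50 or 250 background-corrected fluorescence signals, after deduplication. Signals came from donor IgG, purified on protein G, bound to arrayed 15-residue linear peptides (2452 total) spanning 16 AAV sequences.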"}}, "data": [{"substance": "368 (VTNAPGEMKKELR) [compound 368]", "values": [{"measurement": "rank by relative signal strength (top binding peptides of mAb E10B10)", "setting": "mAb E10B10", "result": "01"}]}, {"substance": "369 (ASAVTNAPGEMKK) [compound 369]", "values": [{"measurement": "rank by relative signal strength (top binding peptides of mAb E10B10)", "setting": "mAb E10B10", "result": "02"}]}, {"substance": "370 (VTNAPGEMKK) [compound 370]", "values": [{"measurement": "rank by relative signal strength (top binding peptides of mAb E10B10)", "setting": "mAb E10B10", "result": "03"}]}, {"substance": "371 (VTNAPGE) [compound 371]", "values": [{"measurement": "rank by relative signal strength (top binding peptides of mAb E10B10)", "setting": "mAb E10B10", "result": "04"}]}, {"substance": "372 (GSASAVTNAPGEM) [compound 372]", "values": [{"measurement": "rank by relative signal strength (top binding peptides of mAb E10B10)", "setting": "mAb E10B10", "result": "05"}]}, {"substance": "373 (AVTNAPGEMKKEL) [compound 373]", "values": [{"measurement": "rank by relative signal strength (top binding peptides of mAb E10B10)", "setting": "mAb E10B10", "result": "06"}]}, {"substance": "374 (SASAVTNAPGEMK) [compound 374]", "values": [{"measurement": "rank by relative signal strength (top binding peptides of mAb E10B10)", "setting": "mAb E10B10", "result": "07"}]}, {"substance": "375 (SGSASAVTNAPGE) [compound 375]", "values": [{"measurement": "rank by relative signal strength (top binding peptides of mAb E10B10)", "setting": "mAb E10B10", "result": "08"}]}, {"substance": "376 (AVTNAPGEMK) [compound 376]", "values": [{"measurement": "rank by relative signal strength (top binding peptides of mAb E10B10)", "setting": "mAb E10B10", "result": "09"}]}, {"substance": "377 (SAVTNAPGEM) [compound 377]", "values": [{"measurement": "rank by relative signal strength (top binding peptides of mAb E10B10)", "setting": "mAb E10B10", "result": 10}]}, {"substance": "378 (ASAVTNAPGE) [compound 378]", "values": [{"measurement": "rank by relative signal strength (top binding peptides of mAb E10B10)", "setting": "mAb E10B10", "result": 11}]}, {"substance": "379 (SAVTNAPGEMKKE) [compound 379]", "values": [{"measurement": "rank by relative signal strength (top binding peptides of mAb E10B10)", "setting": "mAb E10B10", "result": 12}]}, {"substance": "380 (TNAPGEMKKE) [compound 380]", "values": [{"measurement": "rank by relative signal strength (top binding peptides of mAb E10B10)", "setting": "mAb E10B10", "result": 13}]}, {"substance": "NYNKSVNVDFTVDT (REGION 1..14: note = peptide derived from viral capsid protein) [SEQ ID NO: 1903]", "values": [{"measurement": "peptide number among the top 20 peptide hits of mAb Mac2-158", "setting": "mAb Mac2-158", "result": 19}, {"measurement": "top 10%", "setting": "[1]", "result": "X"}, {"measurement": "group I", "setting": "[2]", "result": "X"}, {"measurement": "group II", "setting": "[2]", "result": "X"}, {"measurement": "group III", "setting": "[2]", "result": "X"}]}, {"substance": "SESVPDPQPIGEPP (REGION 1..14: note = peptide derived from viral capsid protein) [SEQ ID NO: 1899]", "values": [{"measurement": "peptide number among the top 20 peptide hits of mAb Mac2-158", "setting": "mAb Mac2-158", "result": "09"}, {"measurement": "top 10%", "setting": "[1]", "result": "X"}, {"measurement": "group I", "setting": "[2]", "result": "X"}, {"measurement": "group II", "setting": "[2]", "result": "X"}, {"measurement": "group III", "setting": "[2]", "result": "X"}]}, {"substance": "SNSQLIFAGPNPSG [SEQ ID NO: 1908]", "values": [{"measurement": "peptide number among the top 20 peptide hits of mAb Mac2-158", "setting": "mAb Mac2-158", "result": "03"}, {"measurement": "top 10%", "setting": "[1]", "result": "X"}, {"measurement": "group I", "setting": "[2]", "result": "X"}, {"measurement": "group II", "setting": "[2]", "result": "X"}, {"measurement": "group III", "setting": "[2]", "result": "X"}]}]}
